In patent US9603833B2, “Benzene or thiophene derivative and use thereof as VAP-1 inhibitor” (R-Tech Ueno, Ltd., priority 2008, dated 2017):
Structures can show the parent of a compound that is named as a salt.

Columns and labels:
Type in all cases: biochemical
human MAO-B = human MAO-B (Homo sapiens (Human), UniProt P27338); experiment: Inhibitory effect on human MAO-B, MAO Detection Kit (Fluoro MAO); details: gene recombinant human MAO-B; fluorescence at 590 nm; 37° C., 2 hrs; read-out: MAO-B inhibition IC50
Description: (§1) The compounds of the present invention obtained in the Production Examples were examined for the inhibitory effect on human monoamineoxydase enzymes (MAO-A and MAO-B) by the following method.
(§2) Gene recombinant human MAO-A and MAO-B enzymes were purchased from Sigma Ltd. The human MAO-A and MAO-B activities were measured using MAO Detection Kit (Fluoro MAO, Cell Technology Inc.). Assay was performed in a 96-well plate. 1× Reaction buffer (40 μl) was added to each well, and 50 μl (5 mg/ml) of MAO-A or MAO-B was added. Then, test compound solutions (final concentration 1×10^−4-1×10^−10 mol/l) (10 μl) were added and the mixtures were incubated at 37° C. for 20 mins. Reaction cocktail (100 μl) was added, and the mixtures (final volume 200 μl) were incubated at 37° C. for 2 hrs. Thereafter, the fluorescence at 590 nm was detected with an excitation wavelength of 570 nm using a multispectro microplate reader (Varioskan, Thermo Fisher Scientific K.K.).

human MAO-A = human MAO-A (Homo sapiens (Human), UniProt P21397); experiment: Inhibitory effect on human MAO-A, MAO Detection Kit (Fluoro MAO); details: gene recombinant human MAO-A; fluorescence at 590 nm; 37° C., 2 hrs; read-out: MAO-A inhibition IC50
Description: as §1, §2

rat VAP-1 enzyme (SSAO) = rat VAP-1 enzyme (SSAO) (Rattus norvegicus (Rat), UniProt O08590); experiment: Inhibitory effect on rat VAP-1 enzyme (SSAO), radiochemical-enzyme assay using 14C-benzylamine; details: rat VAP-1 expressed in a cell, cell extract; 14C-benzylamine 1×10^−5 mol/L; 37° C., 2 hours
Description: (§3) The compounds of the present invention obtained in Production Examples were examined for the inhibitory effect on human and rat VAP-1 enzyme (SSAO) by the following method.
(§4) The VAP-1 enzyme (SSAO) activity in both human and rat was measured by a radiochemical-enzyme assay using ^14C-benzylamine as an artificial substrate. Human or rat VAP-1 was cloned from the cDNA library and expressed in a cell. The cell extract was preincubated with a test compound solution (final concentration 1×10^−7-1×10^−10 mol/L) at room temperature for 20 minutes. Then, ^14C-benzylamine (final concentration 1×10^−5 mol/L) was added, and the mixture was incubated at a final volume of 200 μL at 37° C. for 2 hours. The enzyme reaction was stopped by addition of 2 mol/L (200 μL) citric acid. The oxidation product was extracted with 1 mL toluene/ethyl acetate (1:1), and the radioactivity thereof was measured by a liquid scintillation counter.

[1] = molecular target: human VAP-1 enzyme (SSAO) (Homo sapiens (Human), UniProt Q16853); experiment: Inhibitory effect on human VAP-1 enzyme (SSAO), radiochemical-enzyme assay using 14C-benzylamine; details: human VAP-1 expressed in a cell, cell extract; 14C-benzylamine 1×10^−5 mol/L; 37° C., 2 hours
Description: as §3, §4

Sequence of human MAO-A (P21397 whole entry): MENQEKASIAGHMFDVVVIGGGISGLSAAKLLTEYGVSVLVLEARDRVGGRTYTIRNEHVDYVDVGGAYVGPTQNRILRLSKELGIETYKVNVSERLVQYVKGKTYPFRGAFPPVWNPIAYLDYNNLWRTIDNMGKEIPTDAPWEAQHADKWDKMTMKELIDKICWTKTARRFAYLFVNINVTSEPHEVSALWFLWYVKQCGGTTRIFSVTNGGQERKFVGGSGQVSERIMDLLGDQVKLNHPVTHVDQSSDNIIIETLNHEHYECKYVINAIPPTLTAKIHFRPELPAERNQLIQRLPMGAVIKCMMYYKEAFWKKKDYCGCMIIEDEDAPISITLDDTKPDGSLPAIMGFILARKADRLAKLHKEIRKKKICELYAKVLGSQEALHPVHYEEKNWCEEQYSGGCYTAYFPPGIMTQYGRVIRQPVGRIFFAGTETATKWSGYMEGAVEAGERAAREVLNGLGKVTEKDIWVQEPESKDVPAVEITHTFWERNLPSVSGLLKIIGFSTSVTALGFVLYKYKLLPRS
Sequence of human VAP-1 enzyme (SSAO) (Q16853 whole entry): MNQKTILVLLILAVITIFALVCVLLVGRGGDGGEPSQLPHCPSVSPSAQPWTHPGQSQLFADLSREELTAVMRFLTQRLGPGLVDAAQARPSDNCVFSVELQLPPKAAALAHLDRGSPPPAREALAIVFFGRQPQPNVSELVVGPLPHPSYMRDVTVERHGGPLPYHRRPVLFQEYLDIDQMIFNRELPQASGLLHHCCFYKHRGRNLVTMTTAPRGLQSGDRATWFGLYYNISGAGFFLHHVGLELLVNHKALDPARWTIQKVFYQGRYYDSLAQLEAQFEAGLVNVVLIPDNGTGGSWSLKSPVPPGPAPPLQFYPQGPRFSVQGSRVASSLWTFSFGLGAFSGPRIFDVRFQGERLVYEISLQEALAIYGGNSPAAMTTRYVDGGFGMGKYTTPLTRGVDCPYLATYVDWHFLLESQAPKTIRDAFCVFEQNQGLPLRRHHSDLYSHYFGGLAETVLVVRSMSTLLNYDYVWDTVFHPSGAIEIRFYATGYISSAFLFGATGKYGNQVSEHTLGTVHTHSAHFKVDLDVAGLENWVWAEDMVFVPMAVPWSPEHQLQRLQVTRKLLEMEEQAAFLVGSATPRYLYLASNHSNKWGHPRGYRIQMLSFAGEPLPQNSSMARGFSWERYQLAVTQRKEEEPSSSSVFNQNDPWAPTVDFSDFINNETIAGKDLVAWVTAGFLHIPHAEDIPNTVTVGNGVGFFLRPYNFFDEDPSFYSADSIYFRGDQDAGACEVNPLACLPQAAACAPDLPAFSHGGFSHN
Sequence of human MAO-B (P27338 whole entry): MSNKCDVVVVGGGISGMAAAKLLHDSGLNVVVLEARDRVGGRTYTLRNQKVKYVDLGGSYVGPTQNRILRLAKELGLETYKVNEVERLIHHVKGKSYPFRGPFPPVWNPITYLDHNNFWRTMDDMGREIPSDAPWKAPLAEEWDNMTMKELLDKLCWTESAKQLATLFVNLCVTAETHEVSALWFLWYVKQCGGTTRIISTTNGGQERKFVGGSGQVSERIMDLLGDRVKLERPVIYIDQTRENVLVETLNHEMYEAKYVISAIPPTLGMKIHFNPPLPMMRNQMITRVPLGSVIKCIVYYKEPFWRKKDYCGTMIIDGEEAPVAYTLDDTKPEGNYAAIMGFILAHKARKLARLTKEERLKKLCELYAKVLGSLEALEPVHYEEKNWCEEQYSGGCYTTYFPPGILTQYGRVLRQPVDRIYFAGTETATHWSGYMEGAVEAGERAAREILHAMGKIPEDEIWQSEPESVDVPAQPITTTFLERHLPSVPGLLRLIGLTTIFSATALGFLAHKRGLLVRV
Sequence of rat VAP-1 enzyme (SSAO) (O08590 whole entry): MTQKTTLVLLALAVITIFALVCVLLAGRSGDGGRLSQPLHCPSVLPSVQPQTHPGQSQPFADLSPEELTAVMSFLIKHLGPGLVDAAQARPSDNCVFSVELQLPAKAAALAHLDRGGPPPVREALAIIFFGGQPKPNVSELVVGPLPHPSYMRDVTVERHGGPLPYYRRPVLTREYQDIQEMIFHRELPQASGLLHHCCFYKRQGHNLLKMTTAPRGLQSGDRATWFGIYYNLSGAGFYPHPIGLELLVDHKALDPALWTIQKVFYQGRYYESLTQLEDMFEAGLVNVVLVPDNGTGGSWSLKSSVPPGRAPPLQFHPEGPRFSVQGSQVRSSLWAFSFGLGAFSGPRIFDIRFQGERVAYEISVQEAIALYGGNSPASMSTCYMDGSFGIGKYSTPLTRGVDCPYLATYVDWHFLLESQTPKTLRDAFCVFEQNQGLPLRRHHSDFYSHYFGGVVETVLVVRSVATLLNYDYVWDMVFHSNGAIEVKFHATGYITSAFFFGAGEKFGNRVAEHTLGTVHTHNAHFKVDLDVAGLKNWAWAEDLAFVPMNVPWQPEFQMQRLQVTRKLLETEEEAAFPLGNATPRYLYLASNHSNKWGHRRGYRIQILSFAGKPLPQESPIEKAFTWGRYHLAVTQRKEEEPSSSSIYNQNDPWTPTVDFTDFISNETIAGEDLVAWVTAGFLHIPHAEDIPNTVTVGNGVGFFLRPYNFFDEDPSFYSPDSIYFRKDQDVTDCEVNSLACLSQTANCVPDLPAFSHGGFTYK

Row | SMILES | IC50 (human MAO-B) | IC50 (human MAO-A) | IC50 (rat VAP-1 enzyme (SSAO)) | IC50 [1]
1 | NNC(=O)Cc1ccc(CCc2ccnc(N3CCNCC3)c2)cc1 [Production Example 105, 2-{4-[2-(2-piperazin-1-ylpyridin-4-yl)ethyl]phenyl}acetohydrazide tetrahydrochloride] | > 100000 nM | > 100000 nM | 7.2 nM | 7.3 nM
2 | CC(=O)N1CCN(c2ccc(CCc3csc(CCC(=O)NN)c3)nc2)CC1 [Production Example 121, 3-(4-{2-[5-(4-acetylpiperazin-1-yl)pyridin-2-yl]ethyl}thiophen-2-yl)propanehydrazide trihydrochloride] | – | – | 1.6 nM | 2.2 nM
3 | CC(=O)N1CCN(c2ccc(CCc3csc(CCCOC(=O)NN)c3)nc2)CC1 [Production Example 124, 3-(4-{2-[5-(4-acetylpiperazin-1-yl)pyridin-2-yl]ethyl}thiophen-2-yl)propylhydrazinecarboxylate] | – | – | 5.5 nM | 4.7 nM

Continued, values first:

Row | IC50 (human MAO-B) | IC50 (human MAO-A) | IC50 (rat VAP-1 enzyme (SSAO)) | IC50 [1] | SMILES
4 | > 100000 nM | > 100000 nM | – | – | CN1CCN(c2ccc(CCc3ccc(CC(=O)NN)cc3)cc2)CC1 [Production Example 35, 2-(4-{2-[4-(4-methylpiperazin-1-yl)phenyl]ethyl}phenyl)acetohydrazide trihydrochloride]
5 | > 100000 nM | > 100000 nM | 29.4 nM | 9.8 nM | NNC(=O)Cc1ccc(CCc2cccc(N3CCNCC3)n2)cc1 [Production Example 51, 2-{4-[2-(6-piperazin-1-ylpyridin-2-yl)ethyl]phenyl}acetohydrazide tetrahydrochloride]
6 | > 100000 nM | > 100000 nM | 1.4 nM | 3.2 nM | CC(=O)N1CCN(c2ccc(CCc3ccc(CC(=O)NN)cc3)nc2)CC1 [Production Example 87, 2-(4-{2-[5-(4-acetylpiperazin-1-yl)pyridin-2-yl]ethyl}phenyl)acetohydrazide trihydrochloride]
7 | – | – | 8 nM | 6.6 nM | CC(=O)N1CCN(c2ccc(CCc3ccc(CCOC(=O)NN)cc3)nc2)CC1 [Production Example 122, 2-(4-{2-[5-(4-acetylpiperazin-1-yl)pyridin-2-yl]ethyl}phenyl)ethyl hydrazinecarboxylate trihydrochloride]
